Laboratory results taken from US8124343B2, “IRE-1α substrates” (MannKind Corporation, priority 2005, dated 2012).
{BHQ1} = Black Hole Quencher-1 (BHQ-1) label; {FAM} = fluorescein (FAM) label

Key:
Assay type in all cases: biochemical
IRE-1α [1] = biological target: T1, IRE-1α (Homo sapiens, UniProt O75460); experiment: High-throughput screening assay of IRE-1α RNase activity; conditions: for fluorescence signal, average: 384-well plates
T1 construct: GST (N, cleaved yes); made in house; host or cells: baculovirus-infected insect cells
Experimental: Five μl of a reaction mixture comprising 1× reaction buffer (5× reaction buffer is 100 mM Hepes pH 7.5, 250 mM KOAc, 2.5 mM MgCl2), 3 mM DTT, and 0.4% polyethylene glycol water were added to each well of 384 well plates. Twenty-five nanoliters of a 1 mM test compound solution were added to test wells. Three μl of a […] IRE-1α preparation were added to each test well and to positive control wells (final concentration 5.82 ng/well). Negative control wells contained only reaction mixture and test compound.
After spinning the plates at 1200 rpm for 30 seconds, 3 μl of a 63 nM wild-type IRE-1α substrate or 3 μl of a 63 nM mutant IRE-1α substrate diluted to 48 nM were added to each well of a control plate. The plates were again spun at 1200 rpm for 30 seconds. Final concentrations for the assay were: 63 nM wild-type IRE-1α substrate (or 48 nM mutant IRE-α substrate), 5.82 ng IRE-1α protein, and 2.5 μM test compound.
The plates were covered with lids and incubated for one hour at 30° C. The plates were then transferred to an ACQUEST™ microplate reader. Data was analyzed using data analysis software. The percent activity of IRE-1α was calculated using the following equation: […]
A Beckman Biomek FX robot was used to load all components of the reaction into 384-well plates in the following order: buffer with test compound, IRE-1α, and substrate into 384-well plates. Controls with substrate alone and substrate with IRE-1α were used to calibrate signal to noise ratio and variability between wells (first two left hand rows respectively, in FIG. 6). The two far right lanes in FIG. 6 contain the mutant 15 base dual-labeled substrate with and without IRE-1α as a quality control check for RNase contamination.

IRE-1α [2] = biological target: T1, IRE-1α; experiment: Kinetics of IRE-1α-mediated substrate cleavage; conditions: 20 nM purified IRE-1α, 63 nM substrate, 60 minute incubation, 30° C.
Experimental: Kinetics of IRE-1α-mediated substrate cleavage were measured in an assay as described above using purified active IRE-1α and the wild-type 15 base FAM-BHQ-1™-labeled substrate. The plate was incubated at 30° C. and read every 5 minutes.
These conditions result in a signal of 60,000 units, which is approximately 75% of the full 80,000 unit signal.

IRE-1α [3] = biological target: T1, IRE-1α; experiment: IRE-1α RNase activity assay, reaction products separated on denaturing gel
IRE-1α [4] = biological target: T1, IRE-1α; experiment: Competition assay with 15 base wild-type dual-labeled substrate as readout
Experimental: Increasing amounts of either unlabeled wild-type (SEQ ID NO:1) or mutant 33 base substrate (SEQ ID NO:2) were incubated in the standard reaction as described in Example 2 for 1 hour at 30° C.
X-axis, fluorescence intensity; columns of Y axis, from left to right: 1, wild-type 15 base FAM BHQ-1™ substrate, no IRE-1α, and no competitor (background signal); 2, wild-type 15 base FAM BHQ-1™ substrate, no IRE-1α (background signal) plus 50 fold molar excess of unlabeled wild-type 33 base substrate (control for possible quenching of fluorophore with excess and possible hybridizing to the longer 33 base substrate); 3, wild-type 15 base FAM BHQ-1™ substrate with IRE-1α and an equivalent amount of wild-type 33 base substrate; 4, same as 3 with 2× wild-type 33 base substrate; 5, same as 3 with 5× wild-type 33 base substrate; 6, same as 3 with 10× wild-type 33 base substrate; 7, same as 3 with 20× wild-type 33 base substrate; 8, same as 3 with 50× wild-type 33 base substrate; 9, wild-type 15 base FAM BHQ-1™ substrate no IRE-1α (background signal) plus 50 fold molar excess of unlabeled mutant 33 base substrate (control for possible quenching of fluorophore with excess and possible hybridizing to the longer 33 base substrate (essentially the same as 2); 10, wild-type 15 base FAM BHQ-1™ substrate with IRE-1α and an equivalent amount of mutant 33 base substrate; 11, same as 3 with 2×33 base mutant substrate; 12, same as 3 with 5×33 base mutant substrate; 13, same as 3 with 10×33 base mutant substrate; 14, same as 3 with 20×33 base mutant substrate; 15, same as 3 with 50×33 base mutant substrate; 16, wild-type 15 base FAM BHQ-1™ substrate with IRE-1α (positive control).

[5] = with IRE-1α added, FIG. 3 lanes 13-14
[6] = with IRE-1α, no PEG, FIG. 3 lanes 3-4
[7] = with IRE-1α, with PEG, FIG. 3 lanes 7-8

T1 sequence (O75460 with tags, fused parts or gaps): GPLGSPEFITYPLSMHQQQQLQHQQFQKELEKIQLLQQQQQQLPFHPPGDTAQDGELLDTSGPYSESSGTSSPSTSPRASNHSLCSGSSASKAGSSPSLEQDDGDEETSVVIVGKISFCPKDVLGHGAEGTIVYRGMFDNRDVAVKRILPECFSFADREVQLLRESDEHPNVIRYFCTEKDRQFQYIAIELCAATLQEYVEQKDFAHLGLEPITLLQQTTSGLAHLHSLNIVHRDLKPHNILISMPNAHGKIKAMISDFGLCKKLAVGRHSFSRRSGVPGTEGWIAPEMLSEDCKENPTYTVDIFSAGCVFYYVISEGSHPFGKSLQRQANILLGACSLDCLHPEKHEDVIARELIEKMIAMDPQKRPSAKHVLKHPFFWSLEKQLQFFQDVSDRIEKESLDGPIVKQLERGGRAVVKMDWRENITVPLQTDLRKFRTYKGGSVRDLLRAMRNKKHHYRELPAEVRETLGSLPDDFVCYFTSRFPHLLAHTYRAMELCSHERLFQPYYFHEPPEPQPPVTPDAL

Row | Substance | fluorescence signal, average (IRE-1α [1]; substrate alone (no IRE-1α)) | fluorescence signal, average (IRE-1α [1]; substrate and IRE-1α) | signal from cleaved FAM-BHQ1 labeled substrate (gel) (IRE-1α [3]; [5]) | cleavage of substrate by IRE-1α (gel) (IRE-1α [3]; [6]) | cleavage of substrate by IRE-1α (gel) (IRE-1α [3]; [7]) | also measured
1 | 5′-CAGUCCGCAGCACUG-3′ (5' {FAM}, 3' {BHQ1}, sugars by position and backbone not given here) [15 base wild-type substrate, 15 base wild-type substrate with 5′ FAM and 3′ BHQ-1 moieties] | 12305 | 50076 | signal |  |  | ratio of positive control over background (IRE-1α [1]; wild-type substrate and IRE-1α over substrate alone): 4.07; signal (IRE-1α [2]; 10 μl reaction volume): 60,000 units; signal as share of the full 80,000 unit signal (IRE-1α [2]; 10 μl): approximately 75%; signal from cleaved FAM-BHQ1 labeled substrate (gel) (IRE-1α [3]; IRE-1α added diluted to 1:3, FIG. 3 lane 15): signal
2 | 5′-GGGUCUGCUGAGUCCCCAG-CACUCAGAAGGCCC-3′ (GGGUCUGCUGAGUCCCCAGCACUCAGAAGGCCC; chemistry not given here) [33 base mutant substrate] |  |  |  | does not cut | does not cut | inhibitory activity (fluorescence intensity) (IRE-1α [4]; similar concentrations (ten-fold to 50-fold excess) of unlabeled competitor): no inhibitory activity
3 | 5′-GGGUCUGCUGAGUCCGCAGCACUCAGAAGGCCC-3′ (chemistry not given here) [33 base wild-type substrate, 33 base wild-type stem-loop RNA substrate for IRE-1α] |  |  |  | cuts | cuts | inhibitory activity (fluorescence intensity) (IRE-1α [4]; 50-fold excess of unlabeled competitor, 1 hour at 30° C.): greater than 50%; competition with the 15 base IRE-1α substrate, inhibition of fluorescence intensity (IRE-1α [4]; ten-fold molar excess of unlabeled competitor, 1 hour at 30° C.): begins to compete; cleavage of substrate by IRE-1α (gel) (IRE-1α [3]; IRE-1α diluted 1:3, with PEG, FIG. 3 lane 9): cuts; cleavage of substrate by IRE-1α (gel) (IRE-1α [3]; IRE-1α diluted 1:12, with PEG, FIG. 3 lane 10): cuts; digestion of 33 base stem-loop substrate by IRE-1α (lower molecular weight band) (IRE-1α [3]; recombinant purified human IRE-1α, FIG. 3C): digested
4 | 5′-CAGUCCCCAGCACUG-3′ (chemistry not fully specified) [15 base mutant substrate, 15 base mutant substrate with 5′ FAM and 3′ BHQ-1 moieties] | 10393 | 10516 | no signal |  |  | 
